Assay results: paper PMC6534253, “Stereoselective pharmacokinetic and pharmacodynamic analysis of a CNS-active sulphamoylphenyl carbamate derivative” (Journal of Enzyme Inhibition and Medicinal Chemistry, 2019)
Blank lines part the entries; values can stand above or below the compound they belong to.

What was measured:
[1] = Pharmacokinetics from plasma levels after i.p. administration to rats; type: in vivo, rat; conditions: for Vd/F: read-out: Vss/F
Experimental: (§1) The pharmacokinetics (PK) of racemic-MSPC and its two individual enantiomers were studied following i.p. (80 mg/kg) to rats and their major PK parameters were estimated.
(§2) The study details were as described previously[8] and plasma and brain levels of racemic-MSPC and it individual enantiomers were monitored at: 20, 40, 60, 90, 120, 160, 180, 200, 220, 260, 320, and 360 min after dosing.
(§3) Plasma and brain concentrations of each compound were quantified by an HPLC assay. The HPLC analysis was performed on a system (2695 Separation Module; Waters, Milford, MA) with a photodiode array UV detector (2996 PDA Detector; Waters, Milford, MA). Conditioned as follows: Kinetex, 5 u EVO C18 100 A, 150*4.6 mm column (Phenomenex®, Torrance, CA). Linear gradients (5–95% acetonitrile content) with H2O (0.1% formic acid) and acetonitrile were used as the eluents with flow rate of 1 ml/min at 20 °C. The compounds and the internal standard were detected at 250 nm. Plasma and brain concentrations of MSPC and its two individual enantiomers were quantified by assay that its extraction method was previously described.
(§4) The PK parameters of each compound were calculated by non-compartmental analysis based on statistical moment theory using the PK software Phoenix Winnonlin Tripos L.P. (Pharsight Co., Mountain View, CA) as previously described. MSPC amount excreted unchanged in the urine was calculated by multiplying its urine concertino by the excreted urine volume for up to 6 h after dosing.

[2] = Pharmacokinetics from brain levels after i.p. administration to rats; type: in vivo, rat; conditions: for AUCbrain: as used in the BPR calculation; for Vd/F: read-out: Vss/F
Experimental: as §1, §2, §3, §4

[3] = Amount excreted unchanged in urine; type: in vivo, rat; conditions: urine up to 6 h after dosing
Experimental: MSPC urine concentrations were quantified by the same HPLC assay as its plasma assay.
as §4

hCA I = hCA I (Homo sapiens, UniProt P00915); assay: Stopped flow CO2 hydrase assay, hCA I; type: biochemical; conditions: for Ki: mean from three assays, stopped flow technique
Chain of hCA I (P00915 whole entry): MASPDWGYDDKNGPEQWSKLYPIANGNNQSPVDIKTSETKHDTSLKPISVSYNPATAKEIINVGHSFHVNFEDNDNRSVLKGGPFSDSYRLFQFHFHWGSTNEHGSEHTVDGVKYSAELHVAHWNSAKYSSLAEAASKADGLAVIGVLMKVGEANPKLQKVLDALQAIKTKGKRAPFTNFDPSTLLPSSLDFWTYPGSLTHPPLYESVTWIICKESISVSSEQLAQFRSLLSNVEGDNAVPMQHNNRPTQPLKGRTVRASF
Experimental: (§5) The CA inhibition of MSPC and its individual enantiomers were assessed by a stopped flow CO2 hydrase assay as previously described.

hCA II = hCA II (Homo sapiens, UniProt P00918); assay: Stopped flow CO2 hydrase assay, hCA II; type: biochemical; conditions: for Ki: mean from three assays, stopped flow technique
Experimental: as §5

hCA IV = hCA IV (Homo sapiens, UniProt P22748); assay: Stopped flow CO2 hydrase assay, hCA IV; type: biochemical; conditions: mean from three assays, stopped flow technique
Chain of hCA IV (P22748 19-312): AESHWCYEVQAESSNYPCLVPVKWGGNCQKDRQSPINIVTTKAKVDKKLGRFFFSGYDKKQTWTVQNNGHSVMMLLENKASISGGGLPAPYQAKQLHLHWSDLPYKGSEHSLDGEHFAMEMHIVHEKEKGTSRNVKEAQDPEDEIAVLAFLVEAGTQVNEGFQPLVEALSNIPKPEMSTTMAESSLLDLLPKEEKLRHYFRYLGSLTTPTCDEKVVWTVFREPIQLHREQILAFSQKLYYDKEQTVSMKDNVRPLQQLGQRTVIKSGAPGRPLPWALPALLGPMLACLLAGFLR
Experimental: as §5

hCA VII = hCA VII (Homo sapiens, UniProt P43166); assay: Stopped flow CO2 hydrase assay, hCA VII; type: biochemical; conditions: mean from three assays, stopped flow technique
Chain of hCA VII (P43166 whole entry): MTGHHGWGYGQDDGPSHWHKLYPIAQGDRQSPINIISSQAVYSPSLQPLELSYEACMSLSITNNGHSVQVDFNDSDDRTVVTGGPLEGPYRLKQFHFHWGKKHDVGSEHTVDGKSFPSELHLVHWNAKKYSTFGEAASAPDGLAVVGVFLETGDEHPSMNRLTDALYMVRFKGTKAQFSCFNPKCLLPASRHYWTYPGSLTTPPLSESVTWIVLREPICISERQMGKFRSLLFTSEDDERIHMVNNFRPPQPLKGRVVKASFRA
Experimental: as §5

Water solubility = type: physicochemical
[4] = tested on: maximal electroshock seizure (MES); design: method as in PMID 28275953; conditions: cited from earlier work
[5] = tested on: maximal electroshock seizure (MES); assay: Rat maximal electroshock (MES) anticonvulsant test; type: in vivo
Text: The experiments at the MES model were done in male Sprague-Dawley rats (8 rats per dose) weighing 100−120 g (Charles River Laboratories, Wilmington, MA) as previously described.

[6] = rat, ip, plasma, i.p. 80 mg/kg, mean
[7] = rat, plasma, ip, 80 mg/kg, as used in the BPR calculation, i.p. 80 mg/kg, read-out: AUCplasma
[8] = rat, plasma, ip, 80 mg/kg, plasma, i.p. 80 mg/kg, mean, read-out: AUC
[9] = rat, ip, brain, rats, i.p. 80 mg/kg, mean
[10] = plasma, i.p. 80 mg/kg, mean, listed as (R)-enantiomer, 80 mg/kg
[11] = brain, rats, i.p. 80 mg/kg, mean, listed as (R)-enantiomer, 80 mg/kg
[12] = brain, rats, i.p. 80 mg/kg, mean, listed as (S)-enantiomer, 80 mg/kg

SMILES: CCC(C)CCOC(=O)Nc1ccc(S(N)(=O)=O)cc1 (racemic) [MSPC (racemate), 3-Methylpentyl(4-sulphamoylphenyl)carbamate]
- half-life [1, 6]: 2.1 h
- CL/F ([1]; rat, ip, plasma, i.p. 80 mg/kg, mean, read-out: CL/F (converted)): 11.7 mL/min/kg
- Cmax ([1]; rat, ip, plasma, i.p. 80 mg/kg, mean, read-out: Cmax): 10000 ng/mL
- Vd/F [1, 6]: 2.2 L/kg
- Tmax ([1]; rat, ip, plasma, i.p. 80 mg/kg, mean, read-out: tmax): 1.3 h
- AUC [1, 7]: 28500 ng·h/mL
- AUC [1, 8]: 29000 ng·h/mL
- AUCbrain ([2]; rats, i.p. 80 mg/kg): 52.8
- Kp ([2]; rat, brain, ip, AUCbrain/AUCplasma, rats, i.p. 80 mg/kg, read-out: brain-to-plasma-(AUC)-ratio (BPR)): 1.85
- half-life [2, 9]: 1.9 h
- AUC ([2]; rat, ip, brain, rats, i.p. 80 mg/kg, mean, read-out: AUC): 53000 ng·h/mL
- CL/F ([2]; rat, ip, brain, rats, i.p. 80 mg/kg, mean, read-out: CL/F (converted)): 6.67 mL/min/kg
- Cmax ([2]; rat, ip, brain, rats, i.p. 80 mg/kg, mean, read-out: Cmax): 18000 ng/mL
- Vd/F [2, 9]: 1 L/kg
- Tmax ([2]; rat, ip, brain, rats, i.p. 80 mg/kg, mean, read-out: tmax): 1.6 h
- dose excreted unchanged in urine [3]: Less than 0.1%
- Ki (hCA I): 0.077 µM
- Ki (hCA II): 0.0076 µM
- Ki (hCA IV): 0.75 µM
- Ki (hCA VII): 0.351 µM
- water solubility (Water solubility): low water solubility
- rat-MES-ED50 (i.p.) ([4]; i.p.): 13 mg/kg
- rat-MES-ED50 (po) ([4]; po): 28 mg/kg

- higher clearance ([1]; compared to (S)-MSPC and racemic-MSPC): 29%
- plasma exposure compared to (S)-MSPC ([1]; i.p. 80 mg/kg): 78%
- AUC [1, 10]: 23 mg/L/h
- CL/F [1, 10]: 15 mL/min/kg
- Cmax [1, 10]: 10000 ng/mL
- Tmax [1, 10]: 1.0 h
- Vss/F [1, 10]: 3.2 l/kg^−1
- t1/2 [1, 10]: 2.5 h
- brain-to-plasma-(AUC)-ratio (BPR) ([2]; AUCbrain/AUCplasma, rats, i.p. 80 mg/kg, listed as (R)-enantiomer, 80 mg/kg): 2.07
- AUC [2, 11]: 47 mg/L/h
- CL/F [2, 11]: 6.7 mL/min/kg
- Cmax [2, 11]: 16000 ng/mL
- Tmax [2, 11]: 1.0 h
- Vss/F [2, 11]: 1.4 l/kg^−1
- t1/2 [2, 11]: 2.3 h
- times higher BPR than its enantiomer ([2]; versus (S)-MSPC): 2.6
- Ki (hCA I): 0.0341 µM
- times more effective inhibitor than (S)-MSPC against hCA I (hCA I; ratio of Ki versus (S)-MSPC): 3.8
- Ki (hCA II): 0.0033 µM
- times more effective inhibitor than (S)-MSPC against hCA II (hCA II; ratio of Ki versus (S)-MSPC): 6.1
- Ki (hCA IV): 0.81 µM
- Ki (hCA VII): 0.17 µM
SMILES: CC[C@@H](C)CCOC(=O)Nc1ccc(S(N)(=O)=O)cc1 [(R)-MSPC, 3-methylpentyl(4-sulphamoylphenyl)carbamate]
- rat-MES (po)-ED50 [5]: 30 mg/kg

- AUC [1, 7]: 29000 ng·h/mL
- half-life ([1]; rat, plasma, ip, 80 mg/kg, i.p. 80 mg/kg, mean): 2.3 h
- AUC [1, 8]: 29000 ng·h/mL
- CL/F ([1]; rat, plasma, ip, 80 mg/kg, plasma, i.p. 80 mg/kg, mean, read-out: CL/F (converted)): 11.7 mL/min/kg
- Cmax ([1]; rat, plasma, ip, 80 mg/kg, plasma, i.p. 80 mg/kg, mean, read-out: Cmax): 7600 ng/mL
- Vd/F ([1]; rat, plasma, ip, 80 mg/kg, plasma, i.p. 80 mg/kg, mean): 2.3 L/kg
- Tmax ([1]; rat, plasma, ip, 80 mg/kg, plasma, i.p. 80 mg/kg, mean, read-out: tmax): 1.3 h
- brain-to-plasma-(AUC)-ratio (BPR) ([2]; AUCbrain/AUCplasma, rats, i.p. 80 mg/kg, listed as (S)-enantiomer, 80 mg/kg): 0.79
- AUCbrain ([2]; rats, i.p. 80 mg/kg, listed as (S)−enantiomer, 80 mg/kg): 22.8
- AUC [2, 12]: 23 mg/L/h
- CL/F [2, 12]: 15 mL/min/kg
- Cmax [2, 12]: 7000 ng/mL
- Vd/F ([2]; rat, brain, ip, 80 mg/kg, brain, rats, i.p. 80 mg/kg, mean): 2.2 L/kg
- Tmax ([2]; rat, brain, ip, 80 mg/kg, brain, rats, i.p. 80 mg/kg, mean, read-out: tmax): 0.6 h
- half-life ([2]; rat, brain, ip, 80 mg/kg, rats, i.p. 80 mg/kg, mean): 1.7 h
- Ki (hCA I): 0.13 µM
- Ki (hCA II): 0.0203 µM
- Ki (hCA IV): 0.593 µM
- Ki (hCA VII): 0.744 µM
SMILES: CC[C@H](C)CCOC(=O)Nc1ccc(S(N)(=O)=O)cc1 [(S)-MSPC, 3-methylpentyl(4-sulphamoylphenyl)carbamate]
- ED50 ([5]; Rattus norvegicus, po): 24 mg/kg
